IC50, Ki and melting point data for 13 compounds are collected here from US9546151B2, “VMAT inhibitory compounds” (Oregon Health & Science University, priority 2014, dated 2017).

Where two headings read alike, the source gives them in different places.

The target of series [1] is T1, VMAT2 (Homo sapiens, UniProt Q05940). Briefly: hVMAT2 5HT Uptake. The format is biochemical. Further details: expressed in transfected cells; host or cells: HEK (human embryonic kidney) cells. The procedure:
(§1) Membrane preparation for binding, uptake and release assays using HEK-hVMAT2 cells: Human embryonic kidney cells expressing the human vesicular monoamine transporter 2 (HEK-hVMAT2) were used. HEK-hVMAT2 cells were grown until confluent. The media was removed from plates, solution A [sucrose (0.32 M) with protease inhibitors] was added to the plate, and cells were scraped from plate. Cells were homogenized with 12 strokes of a glass/glass homogenizer. The homogenate was centrifuged at 800×g for 10 min. The supernatant was removed and saved, and the pellet was resuspended, homogenized and centrifuged as above. The supernatants were combined and centrifuged at 10,000×g for 20 min. The pellet was resuspended in solution A (0.75 ml). The membranes were osmotically shocked by addition of 2.625 ml ice cold water and homogenized by 5 strokes of a glass/Teflon homogenizer. The osmolarity was reestablished with addition of Tris (338 μl, 0.25M, pH 7.4 at 4° C.), sodium potassium tartrate (338 μl, 1.0 M), and MgSO4 (4 μl, 0.9M). The homogenate was centrifuged at 20,000×g for 20 min.

In series [2] the target is T1, VMAT2. Briefly: hVMAT2 [3H]DTBZ ([3H]DHTB) binding assay. Further details: expressed in transfected cells; host or cells: HEK (human embryonic kidney) cells. The procedure: as §1
Binding was terminated by filtration over Whatman GF/C filters using a Tomtec 96-well cell harvester. Filters were washed for six seconds with ice-cold saline. Scintillation fluid was added to each square and radioactivity remaining on the filters was determined using a Wallac μ- or beta-plate reader. Specific binding was defined as the difference in binding observed in the presence and absence of Ro4-1284 (10 μM, generously supplied by Hoffman LaRoche). Three or more independent competition experiments were conducted with duplicate determinations.

Another series deals with T2, human 5HT2A receptor (Homo sapiens, UniProt P28223).
T2 construct: expressed in transfected cells; host or cells: HEK cells
T2 sequence (P28223 whole entry): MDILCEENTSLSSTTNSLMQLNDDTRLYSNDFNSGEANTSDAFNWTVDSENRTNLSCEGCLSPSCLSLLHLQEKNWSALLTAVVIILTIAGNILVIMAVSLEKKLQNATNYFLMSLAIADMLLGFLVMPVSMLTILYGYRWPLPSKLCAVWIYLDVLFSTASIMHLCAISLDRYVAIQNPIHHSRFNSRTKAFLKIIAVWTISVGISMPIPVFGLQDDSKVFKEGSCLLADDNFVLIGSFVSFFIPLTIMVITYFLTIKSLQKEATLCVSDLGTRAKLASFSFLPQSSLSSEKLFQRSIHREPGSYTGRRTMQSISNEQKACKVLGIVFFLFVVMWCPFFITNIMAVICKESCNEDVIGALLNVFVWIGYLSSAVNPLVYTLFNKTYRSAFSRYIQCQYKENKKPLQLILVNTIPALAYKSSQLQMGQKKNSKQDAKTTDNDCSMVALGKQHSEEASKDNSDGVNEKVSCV
Briefly: h5HT2A receptors: [125I]DOI binding. As to conditions: read-out: 5-HT2A [^125I]DOI Ki (nM) ± SEM. The procedure: Method: Human embryonic kidney cells expressing the human 5HT2A receptor (HEK-h5HT2A) or human 5HT2C receptor (HEK-h5HT2C) were used. The cells were grown until confluent on 15 cm plates. Media was removed, cells were washed with phosphate-buffered saline (PBS), scraped into 2 ml PBS and frozen at −20° C. until needed. Cell suspension was thawed, 10 ml assay buffer (50 mM Tris, pH 7.4 at 37° C., with 0.1% ascorbic acid and 5 mM CaCl2) was added per plate of cells, and polytronned at setting 6 for 5 sec. The homogenate was centrifuged at 15,500 rpm for 20 min. […] The final pellet was resuspended in 2 ml buffer/plate of cells.
The reaction was incubated for 1 hour at 37° C., and terminated by filtration through Wallac A filtermats presoaked in 0.05% polyethylenimine using a Tomtec 96-well harvester. Radioactivity remaining on filters was counted in a Wallac betaplate reader. IC50 values were calculated using GraphPad Prism. IC50 values were converted using the Cheng-Prusoff equation.

Another series deals with T3, human 5HT1A receptor (Homo sapiens, UniProt P08908).
T3 construct: expressed in transfected cells; host or cells: HEK cells (G418 selection)
T3 sequence (P08908 1-422): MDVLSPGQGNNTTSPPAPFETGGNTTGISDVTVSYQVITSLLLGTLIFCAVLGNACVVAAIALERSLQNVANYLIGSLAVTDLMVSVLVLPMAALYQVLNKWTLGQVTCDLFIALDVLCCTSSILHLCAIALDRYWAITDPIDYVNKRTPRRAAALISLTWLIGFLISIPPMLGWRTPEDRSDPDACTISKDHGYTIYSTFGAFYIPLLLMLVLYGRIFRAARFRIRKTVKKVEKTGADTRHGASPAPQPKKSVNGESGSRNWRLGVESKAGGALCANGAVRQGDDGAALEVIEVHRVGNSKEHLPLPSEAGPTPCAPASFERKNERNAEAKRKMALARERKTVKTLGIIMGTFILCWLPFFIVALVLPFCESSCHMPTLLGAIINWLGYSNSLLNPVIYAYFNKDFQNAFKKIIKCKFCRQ
Briefly: h5HT1A receptors: [3H]8-OH-DPAT binding. As to conditions: cells printed in μM under a head in nM; read-out: 5-HT1A [^3H] 8—OH DPAT Ki(nM) ± SEM. The procedure:
Human embryonic kidney cells expressing the human 5HT1A receptor (HEK-h5HT1A) were used. The cells were grown to confluence in DMEM containing 10% FetalClone® (abbreviated as FC—source: HyClone), 0.05% penicillin-streptomycin (pen-strep), and 300 μg/mL of Geneticin (G418). The cells were scraped from 150 mm plates into phosphate-buffered saline and centrifuged at 270×g, 1200 rpm, for 10 minutes. The cell pellet was homogenized in 50 mM Tris-HCl (pH 7.7) with a Polytron, and centrifuged at 27,000×g. […] The final pellet was resuspended at 0.5 mg protein/mL in assay buffer (25 mM Tris-HCl, pH 7.4, containing 100 μM ascorbic acid and 10 μM pargyline). The assay was performed in duplicate in a 96-well plate. Serial dilutions of test compounds were made using the Biomek 2000 robotics system. […] Nonspecific binding was determined with 1.0 μM dihydroergotamine. The plates were incubated at room temperature for 60 minutes and then filtered through polyethylenimine-soaked (0.05%) “A” filtermats on a Tomtec cell harvester. The filters were washed with cold 50 mM Tris buffer (pH 7.7) for 6 sec, dried, spotted with scintillation cocktail, and counted for 2 minutes after a 4 hour delay on a Wallac Betaplate 1205 liquid scintillation counter.

The mark [3] stands for this setting: [^3H]5HT uptake, HEK-hVMAT2 preparation, read-out: hVMAT2 5HT Uptake IC50 (nM) ± SEM.
Setting [4] is: cells printed in μM under a head in nM, HEK-hVMAT2 membranes.
Setting [5] is: cells printed in μM under a head in nM.

T1 sequence (Q05940 whole entry): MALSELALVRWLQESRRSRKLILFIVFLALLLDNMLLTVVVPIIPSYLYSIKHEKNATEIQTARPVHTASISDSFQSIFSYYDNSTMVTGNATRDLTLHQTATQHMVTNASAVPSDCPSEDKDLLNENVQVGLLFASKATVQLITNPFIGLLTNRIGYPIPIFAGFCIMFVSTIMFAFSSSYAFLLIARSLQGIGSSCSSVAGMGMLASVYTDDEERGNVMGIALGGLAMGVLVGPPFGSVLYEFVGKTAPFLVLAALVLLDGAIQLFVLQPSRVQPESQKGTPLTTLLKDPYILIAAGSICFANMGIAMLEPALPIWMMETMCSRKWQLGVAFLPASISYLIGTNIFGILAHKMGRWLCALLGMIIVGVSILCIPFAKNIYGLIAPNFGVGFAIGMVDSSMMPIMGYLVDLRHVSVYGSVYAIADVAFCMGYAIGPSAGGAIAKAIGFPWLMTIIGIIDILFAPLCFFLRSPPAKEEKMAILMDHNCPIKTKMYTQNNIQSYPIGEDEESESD

In the case of `CCOC(=O)[C@@H]1CN(CCn2c(=O)[nH]c3ccccc3c2=O)CC[C@@H]1c1ccccc1` (racemic) [Compound 5a, (±) syn-ethyl 1-(2-(2,4-dioxo-1,2-dihydroquinazolin-3(4H)-yl)ethyl)-4-phenylpiperidine-3-carboxylate], the IC50 at VMAT2 [1] (setting [3]) is 17 nM. In addition, the Ki at VMAT2 [2] was 1.17 ± 0.314 µM; on human 5HT2A receptor (HEK-h5HT2A homogenate), 37.3 ± 8.5 nM; at human 5HT1A receptor, greater than 10 µM.

For the compound `CCOC(=O)[C@H]1CN(CCn2c(=O)[nH]c3ccccc3c2=O)CC[C@H]1c1cccc(N(C)C)c1` (racemic) [Compound 5aa, (±)-syn-Ethyl 4-(3-(dimethylamino)phenyl)-1-(2-(2,4-dioxo-1,2-dihydroquinazolin-3(4H),-yl)ethyl) piperidine-3-carboxylate], the IC50 at VMAT2 [1] (cells printed in μM under a head in nM, read-out: hVMAT2 5HT Uptake IC50 (nM) ± SEM) was greater than 5000 nM. Besides, the Ki at VMAT2 [2] (setting [4]) was greater than 10 µM; on human 5HT2A receptor (setting [5]), greater than 10000 nM; on human 5HT1A receptor it was greater than 10 µM.

For `CCOC(=O)[C@@H]1CN(CCn2c(=O)[nH]c3ccccc3c2=O)CC[C@@H]1c1ccc(C)cc1` (racemic) [Compound 5b, (±) syn-ethyl 1-(2-(2,4-dioxo-1,2-dihydroquinazolin-3(4H)-yl)ethyl)-4-(p-tolyl)piperidine-3-carboxylate], the IC50 on VMAT2 [1] (setting [3]) was 313 ± 54 nM. The Ki at VMAT2 [2] (setting [4]) was greater than 9 µM; at human 5HT2A receptor (setting [5]), greater than 10000 nM; on human 5HT1A receptor, greater than 10 µM.

In the case of `CCOC(=O)[C@@H]1CN(CCn2c(=O)[nH]c3ccccc3c2=O)CC[C@@H]1c1ccc(F)cc1` (racemic) [Compound 5d, (±) syn-ethyl 1-(2-(2,4-dioxo-1,2-dihydroquinazolin-3(4H)-yl)ethyl)-4-(4-fluorophenyl)piperidine-3-carboxylate], the Ki on human 5HT2A receptor (setting [5]) was greater than 2000 nM; at human 5HT1A receptor, greater than 9 µM.

Take `CCOC(=O)c1ccc([C@H]2CCN(CCn3c(=O)[nH]c4ccccc4c3=O)C[C@H]2C(=O)OCC)cc1` (racemic) [Compound 5l, (±) syn-ethyl 1-(2-(2,4-dioxo-1,2-dihydroquinazolin-3(4H)-yl)ethyl)-4-(4-(ethoxycarbonyl)phenyl)piperidine-3-carboxylate]: the Ki at human 5HT2A receptor (setting [5]) is greater than 10000 nM; at human 5HT1A receptor, greater than 10 µM.

The compound `CCOC(=O)[C@@H]1CN(CCn2c(=O)c3ccccc3n(Cc3ccccc3)c2=O)CC[C@@H]1c1ccc(F)cc1` (racemic) [Compound 6c, (±) syn-ethyl 1-(2-(1-benzyl-2,4-dioxo-1,2-dihydroquinazolin-3(4H)-yl)ethyl)-4-(4-fluorophenyl)piperidine-3-carboxylate] yielded a melting point of 134.9 to 136.4 °C. The half-maximal inhibitory concentration (IC50) at VMAT2 [1] (setting [3]) was found to be 270 ± 53 nM. The same compound returned an inhibition constant Ki at VMAT2 [2] (setting [4]) greater than 7 µM.

As for `CCOC(=O)[C@@H]1CN(CCn2c(=O)c3ccccc3n(C)c2=O)CC[C@@H]1c1cccc(F)c1` (racemic) [Compound 6d, (±)-syn Ethyl 4-(3-fluorophenyl)-1-(2-(1-methyl-2,4-dioxo-1,2-dihydroquinazolin-3(4H)-yl)ethyl)piperidine-3-carboxylate], the melting point is 101.2 to 102.5 °C. Also, the IC50 on VMAT2 [1] (setting [3]) worked out at 89 ± 12 nM. On VMAT2 [2] (setting [4]), this compound came in with a Ki greater than 9 µM. Also, the Ki at human 5HT1A receptor is greater than 10 µM.

On to `CCOC(=O)[C@@H]1CN(CCn2c(=O)[nH]c3sccc3c2=O)CC[C@@H]1c1ccc(F)cc1` (racemic) [Compound 7a, (±) syn-ethyl 1-(2-(2,4-dioxo-1,2-dihydrothieno[2,3-d]pyrimidin-3(4H)-yl)ethyl)-4-(4-fluorophenyl)piperidine-3-carboxylate], for which the melting point fell in the range of 198.8 to 201.4 °C. The IC50 on VMAT2 [1] (setting [3]) was 133 ± 20 nM. For the same compound, at VMAT2 [2] (setting [4]), the Ki was greater than 10 µM.

`CCOC(=O)[C@@H]1CN(CCn2c(=O)[nH]c3sccc3c2=O)CC[C@@H]1c1cccc(F)c1` (racemic) [Compound 7b, (±) syn-ethyl 1-(2-(2,4-dioxo-1,2-dihydrothieno[2,3-d]pyrimidin-3(4H)-yl)ethyl)-4-(3-fluorophenyl)piperidine-3-carboxylate] yielded a melting point of 153.3 to 155.1 °C. The IC50 at VMAT2 [1] (setting [3]) was found to be 200 ± 51 nM. Besides, the Ki on VMAT2 [2] (setting [4]) is greater than 10 µM.

`CCOC(=O)[C@@H]1CN(CCn2c(=O)[nH]c3sccc3c2=O)CC[C@@H]1c1ccc(C(F)(F)F)cc1` (racemic) [Compound 7c, (±) syn-ethyl 1-(2-(2,4-dioxo-1,2-dihydrothieno[2,3-d]pyrimidin-3(4H)-yl)ethyl)-4-(4-(trifluoromethyl)phenyl)piperidine-3-carboxylate] had a melting point of 190.3 to 191.5 °C. In addition, at VMAT2 [1] (setting [3]), the IC50 is 1470 ± 65 nM. The Ki on VMAT2 [2] (setting [4]) is greater than 10 µM.

Turning to `CCOC(=O)[C@H]1CN(CCCn2c(=O)[nH]c3ccccc3c2=O)CC[C@H]1c1ccc(F)cc1` (racemic) [n=2, (±)-syn-Ethyl 1-(3-(2,4-dioxo-1,2-dihydroquinazolin-3(4H)-yl)propyl)-4-(4-fluorophenyl)piperidine-3-carboxylate], the melting point is 171.8 to 172.4 °C. 43 ± 4 nM corresponded to half-maximal inhibition at VMAT2 [1] (IC50). The compound also returned a Ki on VMAT2 [2] greater than 10 µM. The Ki at human 5HT1A receptor is greater than 10 µM.

The compound `CCOC(=O)[C@H]1CN(CCCCn2c(=O)[nH]c3ccccc3c2=O)CC[C@H]1c1ccc(F)cc1` (racemic) [n=3, (±)-syn-Ethyl 1-(4-(2,4-dioxo-1,2-dihydroquinazolin-3(4H)-yl)butyl)-4-(4-fluorophenyl)piperidine-3-carboxylate] had a melting point of 148.5 to 149.7 °C. On VMAT2 [1], half-maximal inhibition (IC50) was put at 133 ± 52 nM. The Ki on VMAT2 [2] was greater than 10 µM.

On to `CCOC(=O)[C@@H]1CN(CCn2c(=O)[nH]c3sccc3c2=O)CC[C@@H]1c1cccc(C(F)(F)F)c1` (relative stereo) [Compound 7d, syn-ethyl 1-(2-(2,4-dioxo-1,2-dihydrothieno[2,3-d]pyrimidin-3(4H)-yl)ethyl)-4-(3-(trifluoromethyl)phenyl)piperidine-3-carboxylate], for which the melting point was 153.5 to 156.5 °C. The IC50 at VMAT2 [1] (setting [3]) was 342 ± 103 nM. Moreover, the inhibition constant (Ki) at VMAT2 [2] (setting [4]) is greater than 10 µM.
